Experimental data reported in US7538129B2, “Diazonamide A analog” (Board of Regents, The University of Texas System, priority 2005, dated 2009).
Entries after “also recorded” stand apart in the source; their conditions may differ.

How the values were obtained:
Format in all cases: in vivo, mice
HCT116 xenografts = test: growth inhibition of HCT116 xenografts; settings: for #Tumor Free (day) / % Max T/C / Log10 Tumor Cell Kill: HCT116 (colon)
Protocol: Details of the preparation of murine models containing xenografts of HCT116 cells or PC-3 cells are described in the section following these examples. After the tumors were grown, therapy utilizing Compound J or paclitaxel was initiated. […] In FIG. 4A, the *'s represent control mice, the squares represent 5 mg/kg Compound J; the diamonds represent 20 mg/kg Compound J; and the slanted line represents 20 mg/kg paclitaxel.
The details of the protocol for Examples 19 and 20 are as follows:
• PC3 prostrate tumor cells and HCT116 colon tumor cells (acquired from the tumor repository Division of Cancer Treatment and Diagnosis (DCTD) of the NCI • Complete RPMI Media • RPMI (Cat# 11875-085, Invitrogen) • 10% Heat-inactivated (30′ 56° C.) Fetal Bovine Serum (Cat# 100-106, Gemini Bio-Products • 2 mM L-glutamine (Cat# 25030-081, Invitrogen) • 0.1 mM MEM Non-Essential Amino Acids Solution (Cat#11140-050, Invitrogen) • 10 U/ml Penicillin/10 μg/ml Streptomycin (Cat#15140-122, Invitrogen) • 1 mM Sodium Pyruvate (Cat#l 1360-070) • Trypsin-EDTA (Cat#25300-054, Invitrogen) • Ca^2+/Mg^2+-free Phosphate Buffered Saline, 5% dextrose in water • Cell Culture Dish 150 mm×25 mm (Cat# 430599, Coming, Inc.) • 10 and 25 ml pipets, standard pipet-aid, p200 and p1000 pipette tips and standard pipetmen • Athymic NCr-nu/nu nude mice at 6-12 weeks of age, either sex (Strain code: 01B74, NCI Frederick Animal Production Program—suppliers include Charles River Labs and Taconic Farms). Female mice of approximately 7 weeks of age were utilized for existing experiments. • Standard 1 cc tuberculin syringe, 30G½ and 25G⅝ needles (Becton Dickinson) • Falcon 5 ml tubes (Cat#352054) • 50 and 15 ml disposable plastic conical tubes (Falcon or similar vendor) • Trypan Blue Solution (0.4%) (Cat#T8154, Sigma) • Hausser phase contrast hemacytometer (Cat# 02-671-54, Fisher) • Ice bucket • Balance for weighing mice (accurate to 0.2 g) • Vernier calipers • Vivarium facility free from known pathogens (nude mice should be housed in isolation from conventional mice if possible—separate rooms or micro-isolator cages equipped with individual air flow; all animal housing, bedding, water should be autoclaved prior to use; standard irradiated mouse chow should be used; animals should be changed out of cages within laminar flow hood; investigators handling mice should be suitably garbed—disposable gown, bonnet, booties, gloves, mask) • AB-5 (Compound J) compound • Ethyl alcohol, 200 proof (Aaper, MFD 041205) • Cremaphor (Cat# C5135, Sigma) • Paclitaxel (Cat#ANP0010, Polymed Therapeutics) Procedure: • 1) Rapidly thaw PC3 or HCT116 cells (if necessary) in 37° C. water bath. Transfer contents to 9ml complete RPMI media. Spin 5′ at 1200 rpm (240 Xg). Discard media and resuspend pellet in 8 ml complete RPMI media. Plate in 100 mm×25 mm cell culture dish in 5% CO2, 37° C. humidified incubator. • 2) Allow to grow for 5-10 days, splitting (aspirate media, wash with 3-5 ml PBS, add 1 ml trypsin-EDTA, incubate 3-5′ at 37° C., add media to desired volume and transfer to multiple plates) 1:8 to 1:10 every 3-4 days as necessary to allow cells to enter phase of logarithmic growth. • 3) When cells are growing well, begin to expand to 150 mm×25 mm dishes. We use 20 ml of media in a 150 mm dish and use 2 ml of trypsin for splitting. When nearly confluent, there should be 2×10^7 cells/150 mm dish. • 4) Plan ahead to time arrival of nu/nu mice such that they can acclimate to animal facility for 1 week prior to injection of tumor cells. […] Plan to inject 10 million cells/mouse and allow for loss of cells/volume during injection process. That is, if 30 mice are to be injected, plan to harvest cells sufficient for at least 35 injections—35×10 million cells=3.5×10^8 cells. In the existing HCT116 experiment, 7.5×10^6 cells were injected per mouse. Five mice per group were utilized for AB-5 treatment and four mice per group were utilized for the control and paclitaxel treatments. […]

[1] = test system: neutrophils (GR1+ cells) in bone marrow; test: neutrophil counts in bone marrow; settings: for neutrophil counts in bone marrow: 5 mg/kg; for neutrophil counts in bone marrow (number of GR1+ cells in one femu): 20 mg/kg, FIG. 5A
Source text: In addition to measuring the affect on tumors, the effect of paclitaxel and Compound J on neutrophils in […] and blood were obtained. […] The data are provided as the number of GR1+ cells in one femu.
(§1) The details of the protocol for Examples 19 and 20 are as follows: […]

[2] = test system: neutrophils in peripheral blood; test: neutrophil count in peripheral blood; settings: for neutrophil count in peripheral blood, ANC (cell/ml): FIG. 5B
Source text: as §1

SMILES	inhibition of growth of HCT116 xenografts (HCT116 xenografts; FIG. 4A, 20 mg/kg IV)	#Tumor Free (day) (HCT116 xenografts; 5 mg/kg, IP)	% Max T/C (HCT116 xenografts; 5 mg/kg, IP) [%]	Log10 Tumor Cell Kill (HCT116 xenografts; 5 mg/kg, IP)	#Tumor Free (day) (HCT116 xenografts; 5 mg/kg, IV)	% Max T/C (HCT116 xenografts; 5 mg/kg, IV) [%]	Log10 Tumor Cell Kill (HCT116 xenografts; 5 mg/kg, IV)	#Tumor Free (day) (HCT116 xenografts; 20 mg/kg, IP)	% Max T/C (HCT116 xenografts; 20 mg/kg, IP) [%]	Log10 Tumor Cell Kill (HCT116 xenografts; 20 mg/kg, IP)	% Max T/C (HCT116 xenografts; 20 mg/kg, IV) [%]	Log10 Tumor Cell Kill (HCT116 xenografts; 20 mg/kg, IV)	animals free of tumors (HCT116 xenografts; free of tumors for over five months)	weight loss (HCT116 xenografts; tumor-free animals, over five months)	neutrophil counts in bone marrow [1]	neutrophil counts in bone marrow (number of GR1+ cells in one femu) [1]	neutrophil proliferation or cell counts in vivo ([1]; FIG. 5A legend)	neutrophil count in peripheral blood, ANC (cell/ml) ([2]; 5 mg/kg)	neutrophil count in peripheral blood, ANC (cell/ml) ([2]; 20 mg/kg)	neutrophil proliferation or cell counts in vivo ([2]; FIG. 5B legend)
CC(C)[C@H](O)C(=O)N[C@H]1Cc2ccc3c(c2)[C@]24C5=C(N=C(O5)[C@H](C(C)C)NC1=O)c1ncc(o1)-c1c[nH]c5cccc(c15)-c1cccc2c1NC4O3 (stereo in doubt) [Compound J]	comparable to paclitaxel; also recorded: slows tumor growth in a manner similar to paclitaxel	0/5	41.9	0.37	0/5	26.5	0.54	0/5	9.3	1.0	0.2	1.8	four of 10	no weight loss	no effect	no effect	no effect	no effect; also recorded: not significantly affected	no effect; also recorded: not significantly affected	no effect
CC(=O)O[C@H]1C(=O)[C@@]2(C)[C@H]([C@H](OC(=O)c3ccccc3)[C@]3(O)C[C@H](OC(=O)[C@H](O)[C@@H](NC(=O)c4ccccc4)c4ccccc4)C(C)=C1C3(C)C)[C@]1(OC(C)=O)CO[C@@H]1C[C@@H]2O [paclitaxel, reference compound]											0.2	3.2			reduction of neutrophil counts	reduction of neutrophil counts; also recorded: significantly lowered		reduction of neutrophil counts; also recorded: greatly lowered	reduction of neutrophil counts; also recorded: greatly lowered	
